Results from patent publication US20240174632A1, “INHIBITING HUMAN INTEGRIN (ALPHA-4) (BETA-7)” (Morphic Therapeutic, Inc., priority 2019, published 2024).

How the values were obtained:
[1] = target: T1, integrin α4β7 (Homo sapiens, UniProt P13612+P26010); assay: Fluorescence Polarization (FP) assay for α4β7 binding, competition with fluorescein-labeled peptide; conditions: 6.5 nM integrin α4β7, 3 nM fluorescein-labeled peptide, 2 mM MnCl2; Tables 3A, 3B, 4; read-out: FP Assay (Example 5) IC50
T1 sequence (P13612 34-1032): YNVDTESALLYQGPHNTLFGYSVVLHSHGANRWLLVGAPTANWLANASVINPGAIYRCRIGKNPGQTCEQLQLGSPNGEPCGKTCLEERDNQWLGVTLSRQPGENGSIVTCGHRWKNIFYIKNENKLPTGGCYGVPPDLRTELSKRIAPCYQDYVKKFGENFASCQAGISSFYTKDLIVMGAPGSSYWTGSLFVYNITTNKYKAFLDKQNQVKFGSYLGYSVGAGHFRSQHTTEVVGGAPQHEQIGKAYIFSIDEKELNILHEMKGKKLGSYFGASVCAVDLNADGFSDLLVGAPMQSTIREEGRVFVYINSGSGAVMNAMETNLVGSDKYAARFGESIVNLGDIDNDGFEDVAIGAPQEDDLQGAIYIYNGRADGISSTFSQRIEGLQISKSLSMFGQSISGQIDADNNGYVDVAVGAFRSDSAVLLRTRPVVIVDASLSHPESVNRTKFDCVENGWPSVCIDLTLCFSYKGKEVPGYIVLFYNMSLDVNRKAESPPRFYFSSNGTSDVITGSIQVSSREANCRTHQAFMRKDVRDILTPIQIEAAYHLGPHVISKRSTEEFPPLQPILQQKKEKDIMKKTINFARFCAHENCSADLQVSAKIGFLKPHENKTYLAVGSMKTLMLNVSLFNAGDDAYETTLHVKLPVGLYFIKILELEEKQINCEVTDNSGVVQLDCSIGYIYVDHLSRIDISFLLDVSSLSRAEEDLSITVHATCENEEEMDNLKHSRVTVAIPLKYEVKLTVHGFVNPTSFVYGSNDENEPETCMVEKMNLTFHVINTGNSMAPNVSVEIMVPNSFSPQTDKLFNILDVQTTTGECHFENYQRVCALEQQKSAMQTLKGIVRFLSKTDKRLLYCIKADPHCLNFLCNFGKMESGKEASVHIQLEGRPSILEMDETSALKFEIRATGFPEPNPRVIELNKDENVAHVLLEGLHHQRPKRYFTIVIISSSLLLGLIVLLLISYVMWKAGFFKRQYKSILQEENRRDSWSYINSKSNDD
T1 sequence (P26010 20-798): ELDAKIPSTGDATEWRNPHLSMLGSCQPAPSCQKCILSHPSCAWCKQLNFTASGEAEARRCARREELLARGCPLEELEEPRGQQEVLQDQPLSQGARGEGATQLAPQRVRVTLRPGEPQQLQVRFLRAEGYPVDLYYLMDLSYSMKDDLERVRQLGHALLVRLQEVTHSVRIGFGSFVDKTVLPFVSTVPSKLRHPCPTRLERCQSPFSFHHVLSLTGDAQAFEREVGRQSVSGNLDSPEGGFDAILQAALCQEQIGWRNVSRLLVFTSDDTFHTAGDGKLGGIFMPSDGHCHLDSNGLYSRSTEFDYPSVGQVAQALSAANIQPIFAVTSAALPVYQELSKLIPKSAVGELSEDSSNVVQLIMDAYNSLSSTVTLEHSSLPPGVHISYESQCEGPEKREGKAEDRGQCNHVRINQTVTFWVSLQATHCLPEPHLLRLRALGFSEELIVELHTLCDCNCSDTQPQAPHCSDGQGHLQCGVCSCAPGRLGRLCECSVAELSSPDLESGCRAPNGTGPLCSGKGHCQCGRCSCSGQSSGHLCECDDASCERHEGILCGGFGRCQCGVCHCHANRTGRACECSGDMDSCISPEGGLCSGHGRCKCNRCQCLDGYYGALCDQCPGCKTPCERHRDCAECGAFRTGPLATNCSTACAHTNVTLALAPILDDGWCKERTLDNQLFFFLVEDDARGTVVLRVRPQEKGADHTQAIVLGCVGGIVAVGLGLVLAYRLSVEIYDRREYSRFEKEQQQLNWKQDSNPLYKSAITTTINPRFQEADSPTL
Protocol: (§1) Three in vitro assays were used to examine the α4β7 mechanistic process used by cells: 1) ligand:receptor affinity, 2) the avidity of those interactions on a cell's surface, and 3) how those interactions fare under an imposing force. In Example 5, a Fluorescence Polarization (FP) assay is used to measure compound activity through binding competition with the fluorescein-labeled peptide. In Example 6, the potency of compounds against α4β7 is measured in the cell-based ligand binding assay (LBA), using RPMI 8866 cells incubated with the compound samples in competition with soluble MAdCAM-1 ligand. In Example 7, activity of compounds is evaluated in a cell adhesion assay that mechanistically tests what occurs in vivo when trafficking cells utilize α4β7 to adhere to MAdCAM-1 expressing HEVs of the gut during the extravasation process. […] Unattached cells are removed and the remaining adherent cells are quantified.
Fluorescence Polarization (FP) assays were used to measure compound activity through binding competition with the fluorescein-labeled peptide […]{Lys(FITC)}. […] After the fluorescein-labeled peptide was added, the assay was incubated at 22° C. for 1 hour and fluorescence polarization was measured. IC50 values were determined by non-linear regression, four-parameter curve fitting.

[2] = target: T2, α4β7 (Homo sapiens, UniProt P13612+P26010); assay: Cell-based ligand binding assay (LBA), RPMI 8866 cells, competition with soluble MAdCAM-1-Fc; conditions: MAdCAM-1-Fc Dylight 650, flow cytometry, Tables 3A, 3B, 4, read-out: LB Assay (Example 6) IC50
T2 construct: endogenous in cells; host or cells: RPMI 8866 cells
T2 sequence (P13612 34-1032): T1 sequence (P13612 34-1032)
T2 sequence (P26010 20-798): T1 sequence (P26010 20-798)
Protocol: as §1
5 ul of 33 nM MAdCAM-1-Fc fluorescently labeled with Dylight 650 in 50 mM HEPES pH 7.3, 150 mM sodium chloride, and 1% bovine serum albumin was added to the cells. […] Fluorescence intensity for each cell was measured via flow cytometry. […] Median fluorescence intensity for Dylight 650 was determined for each sample and concentration-response curves were analyzed for IC50 values using 4-parameter non-linear regression analysis.

[3] = target: T2, α4β7; assay: Cell adhesion assay, RPMI8866 cells adhering to MAdCAM coated plates; assay type: cell-based; conditions: RPMI8866 cells on recombinant human MAdCAM coated plates; Tables 3A, 3B, 4; read-out: CA Assay (Example 7) IC50
Protocol: as §1, with “quantified. […]” for “quantified.”
To each well of a 96 well plate, 100 ug of recombinant human MAdCAM in 100 ul PBS is added and incubated overnight at 4° C. […] Plate is incubated on shaker for 2 minutes at 200 RPM followed by another 8 minutes off shaker before having the luminescence read on a Biotek Citation 5 plate reader. Raw data is converted to % inhibition compared to bottom of curve and analyzed using a 4-parameter non linear curve in Prism to determine IC50 and IC90.

Row | IC50 [1] [nM] | IC50 [2] [nM] | IC50 [3] [nM] | SMILES
1 | < 10 | ≤ 10 | – | COc1ccc(C)c(-c2cc(C)c(F)c([C@H](CC(=O)O)NC(=O)C(CC(C)C)n3cc(CCN4CCC4)c(C(F)(F)F)cc3=O)c2)c1C (single isomer, unassigned) [AG-P2]
2 | < 10 | – | < 5 | Cc1cc(=O)n([C@@H](CC(C)C)C(=O)N[C@@H](CC(=O)O)c2cc(-c3c(C)cccc3C)cc(F)c2F)cc1CCN1CC(F)C1 [D-P2, (3S)-3-(4,5-difluoro-2′,6′-dimethylbiphenyl-3-yl)-3-(2-(5-(2-(3-fluoroazetidin-1-yl)ethyl)-4-methyl-2-oxopyridin-1(2H)-yl)-4-methylpentanamido)propanoic acid]
